The source of these data is US7901498B2, “Trisazo compound, ink composition, printing method and colored product” (Nippon Kayaku Kabushiki Kaisha, priority 2007, dated 2011).

Data set [1] can be described thus: Light fastness test of inkjet-printed images, xenon weatherometer (coloring matter residual rate). The format is physicochemical. The conditions noted are these: for Light fastness: 96 hours, illuminance 100,000 lux, 60% RH, 24° C.; for coloring matter residual rate, light fastness test: 96 hours xenon. Here is the method: (§1) The components described below were mixed to obtain a black ink composition of the present invention, and then foreign substances were filtered off using a 0.45 μm membrane filter. Hereinafter, the obtained ink composition was referred to as “ink”.
(§2) In addition, ion-exchanged water was used as water. In ink preparation, the pH of ink was adjusted to pH 7 to 9 with sodium hydroxide and after that, ion-exchanged water was added to make the total amount 100 parts.
(§3) Using each ink obtained in the above manner, inkjet printing was performed on three kinds of information recording sheet (inkjet special paper), glossy paper 1 [trade name: Professional Photopaper PR-101, manufactured by Canon Inc.], glossy paper 2 [trade name: Photo Paper CRISPIA (highly glossy), manufactured by Seiko-Epson Corporation], glossy paper 3 [trade name: Advanced Photo Paper (glossy), manufactured by Hewlett-Packard Development Company] by an inkjet printer (trade name: PIXUS® iP4100) manufactured by Canon Inc.
(§4) In printing, an image pattern was made so that several gradations in reflection density were obtained, and black printed matter was obtained.
(§5) Using a colorimeter (trade name: SpectroEye®) manufactured by GRETAG-MACBETH, change in printed image density was measured by measuring, after the test, the gradation part where the reflection density, D value, was nearest to 1.0 on each printed image before the test.
Using a low temperature xenon weatherometer (trade name: XL75) manufactured by Suga Test Instruments Co., Ltd., each printed image described above was irradiated for 96 hours under the conditions of a luxilluminance of 100,000, a humidity of 60% RH and a temperature of 24° C. and then measured using the above colorimeter, and the coloring matter residual rate of each image was calculated from the formula (reflection density after test/reflection density before test)×100 (%). The test results are evaluated according to the following criteria. • ◯: Residual rate is 85% or more. • Δ: Residual rate is 80% or more and less than 85%. • ×: Residual rate is less than 80%.

Data set [2] in a line: Ozone gas fastness test of inkjet-printed images (coloring matter residual rate). Format: physicochemical. As to conditions: 24 hours, ozone 10 ppm; for Ozone gas fastness: 60% RH, 24° C. Here is the method:
as §1, §2, §3, §4, §5
Using an ozone weatherometer manufactured by Suga Test Instruments Co., Ltd., each printed image was left for 24 hours under the conditions of an ozone concentration of 10 ppm, a humidity of 60% RH and a temperature of 24° C. After completion of the test, each printed image was measured by the above colorimeter and the coloring matter residual rate was calculated from the formula (reflection density after test/reflection density before test)×100 (%). The test results are evaluated according to the following criteria. • ◯: Residual rate is 70% or more. • Δ: Residual rate is 60% or more and less than 70%. • ×: Residual rate is less than 60%. 2) Light Fastness Test

[3] abbreviates: Glossy paper 3 (Advanced Photo Paper, Hewlett-Packard).
Where [4] appears, read: Glossy paper 1 (Professional Photopaper PR-101, Canon).
[5] abbreviates: Glossy paper 2 (Photo Paper CRISPIA, Seiko-Epson).

With `O=C(O)c1cc(S(=O)(=O)O)ccc1N=Nc1cc(OCCO)c(N=Nc2c(S(=O)(=O)O)cc3c(S(=O)(=O)O)c(N=Nc4c(C(=O)O)nn(-c5ccc(S(=O)(=O)O)cc5)c4O)ccc3c2O)cc1OCCO` [Comparative Example 1, reference compound], the Light fastness result in data set [1] (setting [3]) is “Δ (Residual rate is 80% or more and less than 85%.)”. For the same molecule, the “coloring matter residual rate, light fastness test” value in data set [1] (glossy paper 1) and in data set [1] (glossy paper 2) was “less than 80%” throughout. For the same molecule, the “coloring matter residual rate, ozone gas fastness test” value in data set [2] (on any glossy paper (1, 2, 3)) is reported as “less than 60%”.
For `CS(=O)(=O)O.Cc1cc(N=Nc2c(S(=O)(=O)O)cc3c(S(=O)(=O)O)c(N=Nc4c(C)c(C#N)c5nc6ccccc6n5c4O)ccc3c2O)c(OCCCS(=O)(=O)O)cc1N=Nc1nnc(SCCS(=O)(=O)O)s1` [Example 10], the Light fastness entry in data set [1] (setting [4]) was “◯ (Residual rate is 85% or more.)”; in data set [1] (setting [5]), “Δ (Residual rate is 80% or more and less than 85%.)”; in data set [1] (setting [3]), “◯ (Residual rate is 85% or more.)”. The Ozone gas fastness entry in data set [2] (setting [4]), in data set [2] (setting [5]) and in data set [2] (setting [3]) was “◯ (Residual rate is 70% or more.)” each time.
With `CS(=O)(=O)O.Cc1cc(N=Nc2c(S(=O)(=O)O)cc3c(S(=O)(=O)O)c(N=Nc4c(C)c(C#N)c5nc6ccccc6n5c4O)ccc3c2O)c(OCCCS(=O)(=O)O)cc1N=Nc1nc2c(S(=O)(=O)O)cc(S(=O)(=O)O)cc2s1` [Example 13], the Light fastness entry was “Δ (Residual rate is 80% or more and less than 85%.)” in data set [1] (setting [4]); “◯ (Residual rate is 85% or more.)” in data set [1] (setting [5]); “◯ (Residual rate is 85% or more.)” in data set [1] (setting [3]). Moreover, the Ozone gas fastness entry in data set [2] (setting [4]), in data set [2] (setting [5]) and in data set [2] (setting [3]) was “◯ (Residual rate is 70% or more.)” throughout.
On to `CS(=O)(=O)O.Cc1cc(N=Nc2c(S(=O)(=O)O)cc3c(S(=O)(=O)O)c(N=Nc4c(C)c(C#N)c5nc6ccccc6n5c4O)ccc3c2O)c(OCCCS(=O)(=O)O)cc1N=Nc1nc2c(S(=O)(=O)O)cc(S(C)(=O)=O)cc2s1` [Example 14], for which the Light fastness result in data set [1] (setting [4]), in data set [1] (setting [5]) and in data set [1] (setting [3]) was “◯ (Residual rate is 85% or more.)” in each case. Moreover, the Ozone gas fastness entry in data set [2] (setting [4]), in data set [2] (setting [5]) and in data set [2] (setting [3]) was “◯ (Residual rate is 70% or more.)” throughout.
